The values that follow come from US8350033B2, “4-((3, 5, 6-trimethylpyrazine-2-yl) methoxyl) benzoic acid and its derivatives” (priority 2007, dated 2013).

The subject of series [1] is aggregation of platelet. The series is described as follows: Experiment of resisting platelet aggregation (ADP-induced, platelet-rich plasma, absorbance at 600 nm). The series is classed as cell-based, rabbit. As to conditions: for IC50: Oryctolagus cuniculus, rabbit platelet-rich plasma, ADP final concentration of 4 μmol/L, read-out: IC50 (50% inhibitory concentration) on aggregation of platelet. The procedure: Experiment of resisting platelet aggregation with the ligustrazine aromatic acid ether derivatives: Anaesthetizing intravenously a rabbit with 3% pentobarbital sodium, separating arteria carotis communis and taking blood by inserting a pipe, using 3.8% sodium citrate solution (dissolving 3.8 g sodium citrate with distilled water, up to 100 mL, filtering, bottling, sterilizing under 121° C. and high pressure for 15 min) as an anticoagulant (1:9), 1000 r/min, centrifuging for 5 min to prepare platelet-rich plasma (PRP), 3000 r/min, centrifuging for 15 min to prepare platelet-poor plasma (PPP). Cultivating the PRP under 37° C. in a silicified cuvette for 5 min, measuring absorbance (A) at 600 nm, adjusting the absorbance of the PRP to 0.6-0.7 with the PPP, adding 1.7 mL adjusted PRP into another silicified cuvette, adding 200 μL of the test drug, measuring the absorbance at 600 nm before adding […], then adding 100 μL of ADP (final concentration of 4 μmol/L), respectively measuring the absorbance when 2 and 5 min after adding the ADP, calculating aggregation rate (AR) by the following formula: AR=(A before adding the ADP−A after adding the ADP)/A before adding the ADP (100%.). At the same time, calculating aggregation inhibition rate (AIR) of the tested drug to platelet: AIR=[1−(aggregation percentage in administrated tube/aggregation percentage in contrast tube)]×100. Calculating 50% inhibitory concentration (IC50) of the tested drug, referring to table 2.

The term melting point denotes the temperature, or range, at which the solid turns liquid.

Each structure is given as a SMILES string.

As for `COc1cc(C(=O)O)cc(OC)c1OCc1nc(C)c(C)nc1C` [Example 2, 4-((3,5,6-trimethylpyrazine-2-yl)methoxyl)-3,5-dimethoxybenzoic acid], the melting point was > 218 °C (dec.).
In the case of `COc1cc(C(=O)O)ccc1OCc1nc(C)c(C)nc1C` [Example 5, 4-((3,5,6-trimethylpyrazine-2-yl)methoxyl)-3-methoxybenzoic acid], the melting point lay within 183 to 185 °C.
Consider `Cc1nc(C)c(COc2ccc(C(=O)O)cc2)nc1C` [MC1, 4-((3,5,6-trimethylpyrazine-2-yl)methoxyl)benzoic acid], for which the melting point was in the range of 179 to 181 °C. Moreover, the IC50 in series [1] was 1360 µM. The “antiplatelet aggregative activity compared with Ozagrel positive drug (in words)” value in series [1] (rabbit PRP, ADP) was “stronger than Ozagrel”.
The compound `COc1cc(/C=C/C(=O)O)ccc1OCc1nc(C)c(C)nc1C` [MC2, (E)-3-(4-((3,5,6-Trimethylpyrazin-2-yl)methoxy)-3-methoxyphenyl)acrylic acid] registered a melting point of 156 to 158 °C. The IC50 in series [1] amounted to 280 µM. For the same compound, the “antiplatelet aggregative activity compared with Ozagrel positive drug (in words)” value in series [1] (rabbit PRP, ADP) is recorded as “stronger than Ozagrel”. Also, in series [1] (ratio to Ozagrel positive drug, rabbit PRP, ADP), the “antiplatelet aggregative activity relative to Ozagrel” value is recorded as 5.7 times.
The compound `COc1ccc(C(=O)O)cc1OCc1nc(C)c(C)nc1C` [MC5, 3-((3,5,6-trimethylpyrazine-2-yl)methoxyl)-4-methoxybenzoic acid] gave a melting point of 190 to 192 °C. Besides, the IC50 in series [1] worked out at 1000 µM. The “antiplatelet aggregative activity compared with Ozagrel positive drug (in words)” value in series [1] (rabbit PRP, ADP) is on record as “stronger than Ozagrel”.
For the compound `O=C(O)/C=C/c1ccc(Cn2ccnc2)cc1` [Ozagrel, reference compound], the IC50 in series [1] turned out to be 1600 µM.
